Experimental data as given in patent US20250154145A1, “OXER1 ANTAGONISTS AND USES THEREOF” (Fairhaven Pharmaceuticals Ins., priority 2021, published 2025).

test system: neutrophils; test: Neutrophil calcium flux assay (5-OXO-ETE-stimulated, Indo-1 fluorescence); type: cell-based; settings: 5-OXO-ETE-stimulated calcium flux
Description: After isolation, neutrophils were resuspended in PBS without calcium and Magnesium (PBS −/−) at a concentration of 5×10^6 cells/ml. 2ul of Indo-1 (1 mM) were added per ml of cells. After incubation at 37° C. for 30 minutes, cells were washed twice in PBS −/− and resuspended at 5×10^6 cells/ml in assay buffer (HBSS 1× with calcium and magnesium and […]). In a 96-well Black optical clear bottom plate 100 μL of neutrophil were dispensed to each well. After incubation at 37° C. for 5 minutes, 50 μL of assay buffer or 3× antagonist were added and incubated for 5 min in a Tecan Spark plate reader (Tecan, Morrisville, NC). Baseline was measured for 30 sec (wavelength setup: excitation: 331 nm and emission:410 nm). When baseline is stable, 50p of 5-OXO-ETE at 200 nM (4×) or HBSS was added to appropriate wells. Fluorescence was measured every 5 seconds for 30 cycles. Results are expressed as Net fluorescence (FLU minus Background and injection peak). All data were analyzed using GraphPad Prism version 9 for Windows (GraphPad, San Diego, CA).

`CC(CC(=O)O)CC(=O)c1c(CCCCCC(O)c2cccc(C(=O)N(C)C)c2)n(C)c2ncc(C#N)cc12` (single isomer, unassigned) [Compound I-318] and `C[C@H](CC(=O)O)CC(=O)c1c(CCCCOCc2ccc(F)cc2)n(C)c2ncc(C#N)cc12` [Compound I-368] fall in the same range of IC50: 100 to 300 nM for the first, 100 to 300 nM for the second.

same assay, conditions: Neutrophil, 5-OXO-ETE-stimulated calcium flux

`Cn1c(CCCCOCc2ccccc2)c(C(=O)N2CC[C@H](C(=O)O)C2)c2cnccc21` [Compound I-441] and `Cn1c(CCCCOCc2cccc(Cl)c2)c(C(=O)N2CC[C@H](C(=O)O)C2)c2cc(C#N)cnc21` [Compound I-179] cannot be ordered by IC50: > 300 nM for the first, > 300 nM for the second.

Compared with `C[C@H](CC(=O)O)CC(=O)c1c(CCCCc2nc3cc(Cl)ccc3o2)n(C)c2ccc(Cl)cc12` [Compound I-145], `C[C@H](CC(=O)O)CC(=O)c1c(CCCOCCc2cccc(Cl)c2)n(C)c2ccc(Cl)cc12` [Compound I-61] is lower in IC50: > 300 nM for the first, < 100 nM for the second. The second is the more potent here.

`Cn1c(CCCCCCCC#CC2CC(F)(F)C2)c(C(=O)N2CC[C@H](C(=O)O)C2)c2cc(C#N)cnc21` [Compound I-342] and `C[C@@H]1CN(C(=O)c2c(CCCCCCC#CC3CC(F)(F)C3)n(C)c3ncc(C#N)cc23)C[C@H]1C(=O)O` [Compound I-347] cannot be ordered by IC50: > 300 nM for the first, > 300 nM for the second.

Compared with `C[C@H](CC(=O)O)CC(=O)c1c(CCCCOCc2cccc(F)c2)n(C)c2ncc(C#N)cc12` [Compound I-293], `C[C@H](CC(=O)O)CC(=O)c1c(CCCCOCc2cccc(C#N)c2)n(C)c2ncc(F)cc12` [Compound I-416] is higher in IC50: < 100 nM for the first, 100 to 300 nM for the second. The first is the more potent here.

`CC(C)[C@@H](CC(=O)O)CC(=O)c1c(CCCCOCc2ccccc2)n(C)c2ncc(C#N)cc12` [Compound I-437] and `COC(=O)C[C@@H](C)CC(=O)c1c(CCCCOCc2ccccc2)n(C)c2ncc(C#N)cc12` [Compound I-449] cannot be ordered by IC50: > 300 nM for the first, > 300 nM for the second.

`CC(CC(=O)O)CC(=O)c1c2cc(C#N)cnc2n(C)c1[C@H]1CC[C@@H](OCc2cccc(Cl)c2)CC1` (stereo partly drawn) [Compound I-292] and `CC(CC(=O)O)CC(=O)c1c(C2CCN(CCc3cccc(Cl)c3)CC2)n(C)c2ncc(C#N)cc12` (stereo not drawn) [Compound I-295] cannot be ordered by IC50: > 300 nM for the first, > 300 nM for the second.

`COc1cnc2c(c1)c(C(=O)CC(C)CC(=O)O)c(CCCCOCc1ccccc1)n2C` (stereo not drawn) [Compound I-103] and `C[C@H](CC(=O)O)CC(=O)c1c(CCCCOCc2ccccc2)n(C)c2ncccc12` [Compound I-101] cannot be ordered by IC50: > 300 nM for the first, > 300 nM for the second.

`C[C@H](CC(=O)O)CC(=O)c1c(CCOCCCc2cccc(Cl)c2)n(C)c2ccc(Cl)cc12` [Compound I-62] and `C[C@H](CC(=O)O)CC(=O)c1c(COCCCCc2cccc(Cl)c2)n(C)c2ccc(Cl)cc12` [Compound I-63] cannot be ordered by IC50: < 100 nM for the first, < 100 nM for the second.

First: Cn1c(CCCCCCc2cccc(Cl)c2)c(C(=O)N2CC(C(=O)O)C2)c2cc(Cl)ccc21 [Compound I-151]
Second: Cn1c(CCCCCCc2cccc(Cl)c2)c(CN2CC[C@H](C(=O)O)C2)c2cc(Cl)ccc21 [Compound I-303]
The IC50 of the first is lower: 100 to 300 nM for the first, > 300 nM for the second. The first is the more potent here.

First: Cn1c(CCCCCCC#CC2CC(F)(F)C2)c(C(=O)O)c2cc(Br)cnc21 [Compound I-348]
Second: C[C@H](CC(=O)O)CC(=O)c1c(CCCCCCC#CC2CC(F)(F)C2)n(C)c2ncc(C#N)cc12 [Compound I-328]
The IC50 of the first is higher: > 300 nM for the first, < 100 nM for the second.

`CC(CC(=O)O)CC(=O)c1c(CCOCCNc2cccc(F)c2)n(C)c2ncc(C#N)cc12` (stereo not drawn) [Compound I-296] and `CC(CC(=O)O)CC(=O)c1c(CCOCCNc2cccc(Cl)c2)n(C)c2ncc(C#N)cc12` (stereo not drawn) [Compound I-288] fall in the same range of IC50: 100 to 300 nM for the first, 100 to 300 nM for the second.

First: C[C@H](CC(=O)O)CC(=O)c1c(CCCCCNc2ccccn2)n(C)c2ccc(Cl)cc12 [Compound I-128]
Second: C[C@H](CC(=O)O)CC(=O)c1c(CCCCCNc2ncccn2)n(C)c2ccc(Cl)cc12 [Compound I-82]
The IC50 of the first is higher: > 300 nM for the first, 100 to 300 nM for the second.

`Cn1c(CCCCCCC#CC2CC(F)(F)C2)c(C(=O)N2CC[C@H](c3noc(=O)[nH]3)C2)c2cc(C#N)cnc21` [Compound I-456] and `C[C@@H](CC(=O)O)CC(=O)c1c(CCCCCCCC#CC2CC(F)(F)C2)n(C)c2ncc(C#N)cc12` [Compound I-336] cannot be ordered by IC50: > 300 nM for the first, > 300 nM for the second.

Compared with `C[C@H](CC(=O)O)CC(=O)c1c(CCCCOCc2cccc(C#N)c2)n(C)c2cnc(Cl)cc12` [Compound I-404], `C[C@@H](CC(=O)O)CC(=O)c1c(CCCCOCc2cccc(C#N)c2)n(C)c2cnc(Cl)cc12` [Compound I-405] is higher in IC50: < 100 nM for the first, > 300 nM for the second.

`CC(CC(=O)O)CC(=O)c1c(CCCCOCc2cccc(Cl)c2)n(C[C@@H](O)CO)c2ncc(Cl)cc12` (stereo partly drawn) [Compound I-376] and `CC(CC(=O)O)CC(=O)c1c(CCCCOCc2cccc(Cl)c2)n(CCO)c2ncc(Cl)cc12` (stereo not drawn) [Compound I-378] cannot be ordered by IC50: > 300 nM for the first, > 300 nM for the second.

First: CC(CC(=O)O)CC(=O)c1c(CCCC(C)OCc2ccccc2)n(C)c2ncc(C#N)cc12 (stereo not drawn) [Compound I-435]
Second: CC(CC(=O)O)CC(=O)c1c(CCCC[S+]([O-])Cc2ccccc2)n(C)c2ncc(C#N)cc12 (stereo not drawn) [Compound I-427]
The IC50 of the first is lower: 100 to 300 nM for the first, > 300 nM for the second. The first is the more potent here.

`CC(C)C#CCCCCCc1c(C(=O)C[C@H](C)CC(=O)O)c2cc(Cl)ccc2n1C` [Compound I-114] and `C[C@H](CC(=O)O)CC(=O)c1c(CCCCCCC#CC2CCC2)n(C)c2ccc(Cl)cc12` [Compound I-113] cannot be ordered by IC50: > 300 nM for the first, > 300 nM for the second.

First: C[C@@H](CC(=O)O)CC(=O)c1c(CCCCOCc2cccc(C#N)c2)n(C)c2ncc(Cl)cc12 [Compound I-213]
Second: C[C@H](CC(=O)O)CC(=O)c1c(CCCCOCc2cccc(F)c2)n(C)c2ncc(Cl)cc12 [Compound I-100]
The IC50 of the first is higher: > 300 nM for the first, 100 to 300 nM for the second. The second is the more potent here.

`COc1cc(COCCCCc2c(C(=O)CC(C)CC(=O)O)c3cc(Cl)cnc3n2C)ccn1` (stereo not drawn) [Compound I-446] and `CC(CC(=O)O)CC(=O)c1c(CCCCOCc2cc(C#N)ccn2)n(C)c2ncc(Cl)cc12` (stereo not drawn) [Compound I-444] cannot be ordered by IC50: > 300 nM for the first, > 300 nM for the second.

`Cn1c(-c2ccccc2Cl)cc(C(=O)N2CC[C@H](C(=O)O)C2)c1CCCCOCc1cccc(Cl)c1` [Compound I-171] and `Cn1cc(-c2ccccc2Cl)c(C(=O)N2CC[C@H](C(=O)O)C2)c1CCCCOCc1cccc(Cl)c1` [Compound I-166] cannot be ordered by IC50: > 300 nM for the first, > 300 nM for the second.

`C[C@H](CC(=O)O)CC(=O)c1c(CCCCCCc2cccnc2)n(C)c2ccc(Cl)cc12` [Compound I-53] and `COc1ccc2c(c1)c(C(=O)C[C@H](C)CC(=O)O)c(CCCCCCc1cccc(Cl)c1)n2C` [Compound I-96] cannot be ordered by IC50: < 100 nM for the first, < 100 nM for the second.

`CC(CC(=O)O)CC(=O)c1c(CCCCO)n(C)c2ncc(C#N)cc12` (stereo not drawn) [Compound I-429] and `C[C@@H](CC(=O)O)CC(=O)c1c(CCCCOCc2ccc(F)cc2)n(C)c2ncc(C#N)cc12` [Compound I-369] cannot be ordered by IC50: > 300 nM for the first, > 300 nM for the second.

`C[C@H](CC(=O)NCCS(=O)(=O)O)CC(=O)c1c(CCCCOCc2ccccc2)n(C)c2ncc(C#N)cc12` [Compound I-461] and `C[C@H](CC(=O)N[C@@H](CCC(N)=O)C(=O)O)CC(=O)c1c(CCCCOCc2ccccc2)n(C)c2ncc(C#N)cc12` [Compound I-460] cannot be ordered by IC50: > 300 nM for the first, > 300 nM for the second.

`C[C@H](CC(=O)O)CC(=O)c1c(CCCCOCC#CC2CC(F)(F)C2)n(C)c2ccc(Cl)cc12` [Compound I-324] and `C[C@H](CC(=O)O)CC(=O)c1c(CCOCCCC#CC2CC(F)(F)C2)n(C)c2ccc(Cl)cc12` [Compound I-326] cannot be ordered by IC50: < 100 nM for the first, < 100 nM for the second.

Compared with `CC(CC(=O)O)CC(=O)c1c(CCCCOCc2ccc(F)cc2)n(C)c2ncc(C#N)cc12` (stereo not drawn) [Compound I-297], `CC(CC(=O)O)CC(=O)c1c(CCCCS(=O)(=O)Cc2ccccc2)n(C)c2ncc(C#N)cc12` (stereo not drawn) [Compound I-428] is higher in IC50: < 100 nM for the first, > 300 nM for the second. The first is the more potent here.

First: C[C@H](CC(=O)O)CC(=O)c1c(CCOCC#Cc2cccnc2)n(C)c2ncc(Cl)cc12 [Compound I-228]
Second: CC(CC(=O)O)CC(=O)c1c(CCCCCCc2cccc(C#N)c2)n(C)c2ncc(Cl)cc12 (stereo not drawn) [Compound I-285]
The IC50 of the first is higher: > 300 nM for the first, < 100 nM for the second. The second is the more potent here.

`CC(=O)N(C)c1cccc(C(O)CCCCCc2c(C(=O)CC(C)CC(=O)O)c3cc(C#N)cnc3n2C)c1` (stereo not drawn) [Compound I-313] and `CC(=O)Nc1cccc(C(O)CCCCCc2c(C(=O)CC(C)CC(=O)O)c3cc(C#N)cnc3n2C)c1` (stereo not drawn) [Compound I-312] cannot be ordered by IC50: > 300 nM for the first, > 300 nM for the second.

Compared with `C[C@@H](CC(=O)O)CC(=O)c1c(CCCCOCc2cccc(Cl)c2)n(C)c2cnccc12` [Compound I-406], `C[C@H](CC(=O)O)CC(=O)c1c(CCCCOCc2cccc(Cl)c2)n(C)c2cnccc12` [Compound I-407] is lower in IC50: > 300 nM for the first, < 100 nM for the second. The second is the more potent here.

Going from `CC(CC(=O)O)CC(=O)c1c(CCCCOCc2cccc(Cl)c2)n(C)c2ncc(CN(C)C)cc12` (stereo not drawn) [Compound I-375] to `C[C@H](CC(=O)O)CC(=O)c1c(CCCCC[C@@H](O)c2cccc(Cl)c2)n(C)c2ncc(Cl)cc12` [Compound I-107], the IC50 falls from > 300 nM to < 100 nM.

`CC(CNC(=O)c1c(CCCCCCc2cccc(Cl)c2)n(C)c2ccc(Cl)cc12)C(=O)O` (stereo not drawn) [Compound I-241] and `CC(CC(=O)O)CC(=O)c1c(CCCCCCc2cccc(Cl)c2)n(C[C@H](O)CO)c2ncc(C#N)cc12` (stereo partly drawn) [Compound I-282] cannot be ordered by IC50: > 300 nM for the first, > 300 nM for the second.

Going from `CC(C)OCCCc1c(C(=O)C[C@H](C)CC(=O)O)c2cc(Cl)ccc2n1C` [Compound I-71] to `C[C@H](CC(=O)O)CC(=O)c1c(CCCCCCCC#CC2CC(F)(F)C2)n(C)c2ncc(C#N)cc12` [Compound I-335], the IC50 falls from > 300 nM to < 100 nM. The second is the more potent here.

First: Cn1c(CCCCCCc2cccc(Cl)c2)c(C(=O)N2CC[C@H](c3nnn[nH]3)C2)c2cc(C#N)cnc21 [Compound I-223]
Second: Cn1c(CCCCOCc2cccc(Cl)c2)c(C(=O)N2CC[C@H](c3nnn[nH]3)C2)c2cc(C#N)cnc21 [Compound I-224]
The IC50 of the first is lower: < 100 nM for the first, 100 to 300 nM for the second. The first is the more potent here.
